Test results taken from patent US5043354A, “Pharmaceutically useful 5-hydroxy-2,3-dihydro-benzofurans and 5-hydroxy-benzofurans” (Fujisawa Pharmaceutical Co., Ltd., priority 1989, dated 1991).

Key:
[1] = molecular target: xanthine oxidase-hypoxanthine (XO/HX) reaction; assay: Inhibitory effect on luminol-induced chemiluminescence (CL) which results from xanthine oxidase-hypoxanthine (XO/HX) reaction; format: biochemical, cow; conditions: 37° C, peak intensity, sample in dimethylsulfoxide
Method: Inhibitory effect on luminol-induced chemiluminescence (CL) which results from xanthine oxidase-hypoxanthine (XO/HX) reaction.
Four hundred and fifty micro liter of […] hypoxanthine (Kohjin Co., Ltd.) in 0.lM phosphate buffer solution (PBS)(pH 7.6), 10 μl of 1 mg/ml luminol (Nakarai Chemicals, Ltd.) in PBS and 10 μl of sample dissolved in dimethylsulfoxide were mixed in a round-bottomed vial, and preincubated for 3 min. at 37° C. And then, 50 μl of 0.05 unit/ml xanthine oxidase in 0.lM phosphate buffer solution (from cow milk, Boehringer Mannhein GmbH) was added. For the measurement of CL, a Biolumat (LB 9505, Berthold, FRG) was used. The vial containing XO/HX reaction mixture was placed into a Biolumat chamber at 37° C, and CL was continuously monitored using a computer (PC 9801 VM, NEC). Peak intensity was used as an index of CL.

rat brain homogenate = assay: Inhibitory effect on iron-dependent lipid peroxidation of rat brain homogenate (TBA-reactive products); format: biochemical, rat (male Sprague-Dawley); conditions: 37° C, 20 min
Method: Inhibitory effect on iron-dependent lipid peroxidation of rat brain homogenate
Method : (reported by J. M. Braughler et al.^1))
After decapitation,the brain was quickly removed (minus cerebellum), weighed, and placed in ice-cold Krebs buffer solution. The brain was homogenized in a ratio of 1 g of wet tissue to 9 ml of buffer in a teflon homogenizer. Homogenates were used immediately in lipid p-roxidation assays as follows.
* HEPES : N-(2-hydroxyethyl)piperazine-N'-2-ethanesulfonic acid (Sigma)
To the reaction mixture consisted of 50 μl of 6.25 mg/ml brain homogenate in Krebs buffer solution, 110 μl of Krebs buffer solution, 20 μl of sample dissolved in methanol was added 20 μl of aqueous 2 mM Fe(NH4)2 (SO4)2 solution, which was prepared freshly, at 37° C. After 20 min, the reaction was terminated by the addition of 30 μl of 35% perchloric acid. Then 20 μl of 500 μM desferoxamine mesylate (Sigma) in Krebs buffer solution was added to the reaction mixture to prevent further lipid peroxydation. After centrifugation at 2000 xg, 10 min, 4° C., 50 μl of supernatant was subsequently assayed for lipid peroxide.
Lipid peroxide was assessed as TBA-reactive product as described by H. Ohkawa et al ^2). The reaction mixture consisted of 50 μl of above-mentioned supernatant, 100 μl of aqueous 8.1% sodium dodecyl sulfate (SDS) solution, 750 μl of aqueous 20% acetic acid solution which was adjusted with aqueous lN NaOH solution to pH 3.5, 750 μl of aqueous 0.67% 2-thiobarbituric acid solution and 350 μl of distilled water was boiled for 1 hour and cooled in ice bath rapidly. 0.5 ml of distilled water and 2.5 ml of the mixture of n-butanol and pyridine (15:1, V/V) were added, and the mixture was shaken vigorously. After centrifugation at 1250 xg for 10 min, the fluorescence (excitation; 515 nm, emission; […]) of the organic layer was determined.

Solubility = format: physicochemical

Row | IC50 [1] | Solubility (Solubility; chloroform, diethyl ether, ethyl acetate, acetone, methanol and ethanol) | Solubility (Solubility; hexane, water) | Structure (SMILES) | Inhibition of TBA-reactive products generation (rat brain homogenate; concentration 10^-4 M) | Inhibition of TBA-reactive products generation (rat brain homogenate; concentration 10^-5 M) | Inhibition of TBA-reactive products generation (rat brain homogenate; concentration 10^-6 M) | Inhibition of TBA-reactive products generation (rat brain homogenate; concentration 10^-7 M)
1 | 380 nM |  |  | COc1cc2c(cc1O)CC(C(C)(C)O)O2 (racemic) [Example 1, 2,3-dihydro-2-(1-hydroxy-1-methylethyl)-6-methoxy-5-benzofuranol] |  |  |  | 
2 | 4.7 nM |  |  | COc1cc2oc(C(C)C)cc2cc1O [Example 2, 5-hydroxy-6-methoxy-2-(1-methylethyl)benzofuran] |  |  |  | 
3 | 320 nM | Soluble | Sparingly Soluble | COc1cc2c(cc1O)CC(C(C)(C)O)O2 (stereo not shown) [Example 3, 2,3-Dihydro-2-(1-hydroxy-1-methylethyl)-6-methoxy-5-benzofuranol] | 95.5% | 45.4% | 20.0% | 11.4%
4 |  |  |  | Cc1c(C)c2c(c(C)c1O)CCC(C)(CCCC(C)CCCC(C)CCCC(C)C)O2 (stereo not drawn) [α-Tocopherol, reference compound] | 65.3% | 25.7% | 9.3% | 0%
